Measurements: US9394547B2, “Method and apparatus for delivery of molecules to cells” (CITY UNIVERSITY OF HONG KONG, priority 2012, dated 2016)
Counter-ions that a name gives are not always drawn.

What was measured:
MC-3T3 cells = experiment: Flow cytometry of fluorescein intracellular delivery with diamond nanocone array; assay type: cell-based, Mouse; conditions: fluorescein 1 mg/ml
Method: Mouse MC3T3-E1 pre-osteoblasts, which can differentiate into osteoblasts, were used in the present study. The cells were cultured at 37° C. with 5% carbon dioxide (CO2) and 95% humidified air in Dulbecco's Modified Eagle Medium (DMEM) (Gibco) supplemented with 10% fetal bovine serum (FBS) (Gibco). The medium was renewed every 2-3 days and confluent cells were subcultured through trypsinization.
Three groups of cells were studied. One group was untreated cells. Other two groups included the cells which were treated by smooth silicon substrate and diamond nanocone array. For treatment, a volume of […] MC-3T3 cell suspension was applied to the substrate with a speed of about 3 ms^−1 by a pipette (FIG. 16). After the application, the cell suspension was collected and pipetted to the substrate again with a similar speed. Such cell treatment procedure was repeated for 15 times. The same procedures were used in all experiments for enhanced intracellular delivery. Following cell treatment, cells were plated into 96-well microtiter plates. After 22 hours, morphology of each group of cells was observed by optical microscopy. After 24 hours, cell viability was determined by MTT assay.
Subsequently, the enhanced intracellular delivery capability of the diamond nanocone array was firstly assessed by investigating the fluorescence intensity of fluorescein sodium salt stain in treated cells by quantitative analysis through flow cytometry. MC-3T3 cells were harvested at a density of 10^4 cells/ml. Fluorescien was added to cell growth medium at a concentration of 1 mg/ml. After the addition of fluorescein, a volume of 1 ml of this cell suspension was treated with the same method as that described above. Two experiments were arranged in investigating the intracellular delivery of fluorescein sodium salt. In one experiment, the negative control was to apply cells to a smooth silicon substrate without the nanocone array. In the other experiment, untreated cells were used as the control (i.e. neither nanocone array nor smooth Si substrate was used). After 15 min of staining, the suspensions of control and treated group cells were pelleted by centrifugation (Spectrafuge™ 16 M, Labnet) at 6000 rpm for 3 min, after which the supernatants were removed. The cell pellets were washed by 1 mL of phosphate buffered saline (PBS) and then resuspended throughly. The cell suspensions were centrifuged again at 6000 rpm for 3 min, and the cell pelletes were washed by PBS for 3 times in total. Finally, the cell suspensions were prepared with a concentration of 10^4 cells in PBS and then immediately analysed using a flow cytometer (Becton DICKINSON, FACSCalibur cytometer) by counting 1×10^4 cells per sample. […]

A549 cells = experiment: Live-cell confocal imaging of luminescent iridium(III) complex delivery; assay type: cell-based
Method: In this embodiment, suspension with the subjects was applied to the nanoneedle array at a speed of about 3.0 m/s. After treatment with the nanooneedles, the cells were grown on a sterile glass coverslip for 19 hours followed by PBS washing and then investigated by fluorescence confocal microscopy. Negligible cell death was found under microscopy in the experiments. FIG. 12a is a representative image showing the intracellular delivery of the iridium(III) polypyridine complex to A549 cells. […] In comparison, FIG. 12b is the image of the control group in which the cells were incubated with the complex for 19 hours but not treated with nanoneedles before incubation. FIGS. 12a and 12b were taken under the same microscope settings. […] (The arrows in the figures indicate the cells in which direct nucleic delivery of the luminescent complex is achieved with diamond needles treatment. The scale bars in FIGS. 12a), b), e) and f) indicate 25 μm).
The fluorescence intensities in the cytoplasm of the two selected cells were normalized to be the same value and the fluorescence intensities in the nucleus of the two cells were compared. The representative results are shown in FIG. 12c for a nanoneedle-treated cell and FIG. 12d for a cell without treatment. […] For the nanoneedle treated group, unexpectedly, a number of cells in which the fluorescence signal was almost evenly distributed in the entire cells were found. For this reason, it was not apparent to locate their nuclei (indicated by the arrows in FIGS. 12e and 12f).
A549 cells were maintained as exponentially growing cultures in a Dulbecco's modified Eagle's medium (DMEM) with 10% FBS and 1% penicillin/streptomycin at 37° C. The cells were trypsinized and suspended in DMEM medium. There are about 6×10^4 cells in one milliliter. Iridium(III) polypyridine complex was added to the cell medium at a concentration of 0.1 μM. […]
A549 cell suspension in medium/DMSO (99:1, v/v) containing [Ir(ppy)2(bpy-Et)](PF6) (0.1 μM) was prepared. […] The emission was measured using a long-pass filter at 532 nm.

NIH3T3 fibroblast cells = experiment: Cytosolic delivery into fibroblast cells by diamond nanoneedle array under centrifugation (live/dead calcein AM/EthD-1 staining); assay type: cell-based
From the text: This kit has been widely used to characterize cell viability and cytotoxicity. In the assays, with application of nanoneedle array to cells, the membrane-permeant calcein AM enters cells and is cleaved by esterases in live cells to yield cytoplasmic green fluorescence; while the membrane-impermeant ethidium homodimer-1 (EthD-1) labels nucleic acids of membrane-disrupted cells with red fluorescence. […] In comparison, dead cells were labeled with only red fluorescence (FIG. 5). FIG. 5a are representative images of fibroblast cells after successful cytosolic delivery of EthD-1; FIG. 5b is a chart showing quantification of delivery efficiency; and FIG. 5c is a chart showing quantification of cell viability after being treated with nanoneedles arrays; all at a scale bar of 100 um.
In an embodiment, the penetration and subsequent disruption of cell membrane by nanoneedles was precisely controlled by centrifugation-induced supergravity to achieve reliable, highly efficient, diffusion based cytosolic delivery. In a specific embodiment, in order to optimize the force applied onto the cell membranes through nanoneedles, the whole setup (cell culture plus nanoneedle array) was maintained in supergravity by centrifugation at a series of speeds from 300 rpm (12.8 g, RCF) to 1000 rpm (142 g). […]

[1] = test system: primary hippocampal neurons; experiment: Cytosolic delivery into primary hippocampal neurons by diamond nanoneedle array under centrifugation (live/dead staining); assay type: cell-based; conditions: around 300 rpm (12.8 g)
Method: Intracellular delivery into post-mitotic cells, such as neuron, has always been challenging. […] Compared with fibroblast cells, neurons are more vulnerable to membrane disruption induced by nanoneedle arrays. Generally, a relatively lower speed would be required to achieve similar delivery efficiency as in fibroblast cells (FIG. 6). […] Therefore, a centrifuging speed of 300-400 rpm was selected for following experiments with primary neurons. FIG. 6a are representative images of fibroblast cells after successful cytosolic delivery of EthD-1; FIG. 6b is a chart showing quantification of delivery efficiency; and FIG. 6c is a chart showing quantification of cell viability after being treated with nanoneedles arrays; all at a scale bar of 100 um.
Hippocampal neuron cultures were prepared following the method previously described. Briefly, dissociated neurons were prepared from hippocampi dissected from E18 Sprague Dawley rats by enzymatic treatment with papain (Sigma) for 30 min at 37° C. followed by trituration with a 1 ml pipette tip. Before seeding neurons, all substrates were pre-coated with polylysine (Sigma, 100 μg ml^−1) and laminin (Invitrogen, 10 μg ml^−1). Neuron cells were treated with nanoneedle arrays at 6-7 days in vitro (DIV).
Nanoneedle array was placed to float on culture medium with the needles facing toward cells. […]

## O=C1OC2(c3ccc(O)cc3Oc3cc(O)ccc32)c2ccccc21 [fluorescein sodium salt]
MC-3T3 cells; FIG. 20, cells treated with the nanocone array
  M3, percentage of cells with fluorescence intensity 1×10^2 to 1×10^3: 73.5%
MC-3T3 cells; FIG. 20, control cells applied to smooth Si substrate
  M2, percentage of cells with fluorescence intensity 1×10^1 to 1×10^2: 63.1%
MC-3T3 cells; FIG. 21, cells treated with the nanocone array
  M3, percentage of cells with fluorescence intensity 1×10^2 to 1×10^3: 62.4%
MC-3T3 cells; FIG. 21, untreated sample (no nanocone, no Si substrate)
  M2, percentage of cells with fluorescence intensity 1×10^1 to 1×10^2: 70.0%

## [Ir(ppy)2(bpy-Et)](PF6) [iridium(III) polypyridine complex]
A549 cells; A549 cells, 0.1 μM, 19-hour incubation, not treated with nanoneedles
  fluorescence signal: extremely weak
A549 cells; A549 cells, 0.1 μM, nanoneedle treated, 19 hours
  intracellular localization: mainly localized in the perinuclear region
A549 cells; by diffusion, without nanoneedles
  nuclear uptake: negligible nuclear uptake

## ethidium homodimer-1 [EthD-1]
NIH3T3 fibroblast cells; centrifugation 300 rpm
  cytosolic delivery efficiency of EthD-1: ~5%
NIH3T3 fibroblast cells; centrifugation 500 rpm or above
  cytosolic delivery efficiency of EthD-1: ~80%
[1]
  delivery efficiency of EthD-1: about 80%
